The results in this text go back to patent US20100104659A1, “BENZOPYRANOPYRAZOLES” (priority 2006, published 2010).

The subject of this experiment is RKO human colon adenocarcinoma cells (RKOp27 subclone), proliferating. Description: Alamar Blue cell viability assay, RKO p27 uninduced (proliferating). The note with it: RKOp27, 72 h, read-out: −log EC50 [mol/l] RKO p27 uninduced (proliferating), anti-proliferative/cytotoxic activity (converted).
Experimental: The anti-proliferative/cytotoxic activity of the compounds described herein can be tested on subclones of RKO human colon adenocarcinoma cells (Schmidt et al., Oncogene 19, 2423-2429; 2000) using the Alamar Blue cell viability assay (described in O'Brien et al. Eur J Biochem 267, 5421-5426, 2000). The compounds are dissolved as 10 mM solutions in DMSO and subsequently diluted in semi-logarithmic steps. DMSO dilutions are further diluted 1:100 into Dulbecco's modified Eagle's medium (DMEM) containing 10% fetal calf serum to a final concentration twice as much as the final concentration in the test. RKO subclones are seeded into 96 well flat bottom plates at a density of 4000 cells per well in a volume of 50 μl per well. 24 hours after seeding the 50 μl each of the compound dilutions in DMEM medium are added into each well of the 96 well plate. Each compound dilution is tested as triplicates. Wells containing untreated control cells are filled with 50 μl DMEM medium containing 1% DMSO. The cells are then incubated with the substances for 72 hours at 37° C. in a humidified atmosphere containing 5% carbon dioxide. To determine the viability of the cells, 10 μl of an Alamar Blue solution (Biosource) are added and the fluorescence is measured at an extinction of 544 nm and an emission of 590 nm. For the calculation of the cell viability the emission value from untreated cells is set as 100% viability and the emission rates of treated cells are set in relation to the values of untreated cells. Viabilities are expressed as % values. The Graphpad Prism program (GraphPad Software, Inc) is used for the calculation of EC50 values for anti-proliferative/cytotoxic activity out of the obtained dose-response curves.
Each compound dilution is tested as triplicates. Wells containing untreated control cells are filled with 50 μl DMEM medium containing 1% DMSO. The cells are then incubated with the substances for 72 hours at 37° C. in a humidified atmosphere containing 5% carbon dioxide. To determine the viability of the cells, 10 μl of an Alamar Blue solution (Biosource) are added and the fluorescence is measured at an extinction of 544 nm and an emission of 590 nm. For the calculation of the cell viability the emission value from untreated cells is set as 100% viability and the emission rates of treated cells are set in relation to the values of untreated cells. Viabilities are expressed as % values. The Graphpad Prism program is used for the calculation of EC50 values out of the obtained dose-response curves. Viability is compared of proliferating cells grown in the absence of the inducer Ponasterone A, versus viability of cells arrested by the expression of ectopic p27Kip1 induced by Ponasterone A.
On to `CN(C(=O)N1N=C2c3cc(F)ccc3OCC2C1c1ccccc1)C1CCCNC1` (mixture of isomers) [Example 25, (3RS,3aRS)-8-Fluoro-3-phenyl-3a,4-dihydro-3H-chromeno[4,3-c]pyrazole-2-carboxylic acid (R)-methyl-piperidin-3-yl-amide and (3RS,3aRS)-8-Fluoro-3-phenyl-3a,4-dihydro-3H-chromeno[4,3-c]pyrazole-2-carboxylic acid (S)-methyl-piperidin-3-yl-amide], for which the EC50 is not above 100 nM.
For `CN(C)C(=O)N1N=C2c3cc(F)ccc3OC[C@H]2[C@@H]1c1cccc(O)c1` (racemic) [Example 1, (3RS,3aSR)-8-Fluoro-3-(3-hydroxy-phenyl)-3a,4-dihydro-3H-chromeno[4,3-c]pyrazole-2-carboxylic acid dimethylamide], the EC50 is 100 to 1000 nM.
Regarding `CN(C)C(=O)N1N=C2c3cc(F)ccc3OC[C@@H]2[C@@H]1c1cccc(O)c1` (racemic) [Example 2, (3RS,3aRS)-8-Fluoro-3-(3-hydroxy-phenyl)-3a,4-dihydro-3H-chromeno[4,3-c]pyrazole-2-carboxylic acid dimethylamide], the EC50 was 100 to 1000 nM.
The result for `CN(C)CCN(C)C(=O)N1N=C2c3cc(F)ccc3OC[C@@H]2[C@@H]1c1cccc(O)c1` (racemic) [Example 4, (3RS,3aRS)-8-Fluoro-3-(3-hydroxy-phenyl)-3a,4-dihydro-3H-chromeno[4,3-c]pyrazole-2-carboxylic acid (2-dimethylamino-ethyl)-methyl-amide] reads not above 100 nM; that for `CN1CCC(N(C(=O)N2N=C3c4cc(F)ccc4OC[C@@H]3[C@@H]2c2cccc(O)c2)C2CC2)CC1` (racemic) [Example 5, (3RS,3aRS)-8-Fluoro-3-(3-hydroxy-phenyl)-3a,4-dihydro-3H-chromeno[4,3-c]pyrazole-2-carboxylic acid cyclopropyl-(1-methyl-piperidin-4-yl)-amide], 100 to 1000 nM; that for `CN(C)CCCN(C)C(=O)N1N=C2c3cc(F)ccc3OC[C@@H]2[C@@H]1c1cccc(O)c1` (racemic) [Example 6, (3RS,3aRS)-8-Fluoro-3-(3-hydroxy-phenyl)-3a,4-dihydro-3H-chromeno[4,3-c]pyrazole-2-carboxylic acid (3-dimethylamino-propyl)-methyl-amide], not above 100 nM.
Next, `CN1CCC(N(C)C(=O)N2N=C3c4cc(F)ccc4OC[C@@H]3[C@@H]2c2ccccc2)CC1` (racemic) [Example 9, (3RS,3aRS)-8-Fluoro-3-phenyl-3a,4-dihydro-3H-chromeno[4,3-c]pyrazole-2-carboxylic acid methyl-(1-methyl-piperidin-4-yl)-amide]: not above 100 nM; `CCN(CCN(C)C)C(=O)N1N=C2c3cc(F)ccc3OC[C@@H]2[C@@H]1c1ccccc1` (racemic) [Example 10, (3RS,3aRS)-8-Fluoro-3-phenyl-3a,4-dihydro-3H-chromeno[4,3-c]pyrazole-2-carboxylic acid (2-dimethylamino-ethyl)-ethyl-amide]: not above 100 nM; `CN(C)CCCN(C)C(=O)N1N=C2c3cc(F)ccc3OC[C@@H]2[C@@H]1c1ccccc1` (racemic) [Example 11, (3RS,3aRS)-8-Fluoro-3-phenyl-3a,4-dihydro-3H-chromeno[4,3-c]pyrazole-2-carboxylic acid (3-dimethylamino-propyl)-methyl-amide]: not above 100 nM.
Next, `CC(C)CN(C)C(=O)N1N=C2c3cc(F)ccc3OC[C@@H]2[C@@H]1c1ccccc1` (racemic) [Example 12, (3RS,3aRS)-8-Fluoro-3-phenyl-3a,4-dihydro-3H-chromeno[4,3-c]pyrazole-2-carboxylic acid isobutyl-methyl-amide]: 100 to 1000 nM.
For the molecule `CN1CCC(N(C(=O)N2NC3c4cc(F)ccc4OC[C@H]3[C@@H]2c2ccccc2)C2CC2)CC1` (mixture of isomers) [Example 15, (3RS,3aRS)-8-Fluoro-3-phenyl-1,3a,4,9b-tetrahydro-3H-chromeno[4,3-c]pyrazole-2-carboxylic acid cyclopropyl-(1-methyl-piperidin-4-yl)-amide], the EC50 is not above 100 nM.
In the case of `CN(C)CCN(C)C(=O)N1N=C2c3cc(F)ccc3OC[C@@H]2[C@@H]1c1ccccc1` (racemic) [Example 19, (3RS,3aRS)-8-Fluoro-3-phenyl-3a,4-dihydro-3H-chromeno[4,3-c]pyrazole-2-carboxylic acid (2-dimethylamino-ethyl)-methyl-amide], the EC50 is not above 100 nM.
The result for `CN(CCCN)C(=O)N1N=C2c3cc(F)ccc3OC[C@@H]2[C@@H]1c1ccccc1` (racemic) [Example 20, (3RS,3aRS)-8-Fluoro-3-phenyl-3a,4-dihydro-3H-chromeno[4,3-c]pyrazole-2-carboxylic acid (3-amino-propyl)-methyl-amide] reads 100 to 1000 nM; that for `CNCCCN(C)C(=O)N1N=C2c3cc(F)ccc3OC[C@@H]2[C@@H]1c1ccccc1` (racemic) [Example 22, (3RS,3aRS)-8-Fluoro-3-phenyl-3a,4-dihydro-3H-chromeno[4,3-c]pyrazole-2-carboxylic acid methyl-(3-methylamino-propyl)-amide], not above 100 nM.
The result for `CNCCN(C)C(=O)N1N=C2c3cc(F)ccc3OC[C@@H]2[C@@H]1c1ccccc1` (racemic) [Example 23, (3RS,3aRS)-8-Fluoro-3-phenyl-3a,4-dihydro-3H-chromeno[4,3-c]pyrazole-2-carboxylic acid methyl-(2-methylamino-ethyl)-amide] reads 100 to 1000 nM; that for `CN(C(=O)N1N=C2c3cc(F)ccc3OC[C@@H]2[C@@H]1c1cccc(O)c1)C1CCNCC1` (racemic) [Example 27, (3RS,3aRS)-8-Fluoro-3-(3-hydroxy-phenyl)-3a,4-dihydro-3H-chromeno[4,3-c]pyrazole-2-carboxylic acid methyl-piperidin-4-yl-amide], not above 100 nM; that for `CN(CCN1CCCC1)C(=O)N1N=C2c3cc(F)ccc3OC[C@@H]2[C@@H]1c1ccccc1` (racemic) [Example 28, (3RS,3aRS)-8-Fluoro-3-phenyl-3a,4-dihydro-3H-chromeno[4,3-c]pyrazole-2-carboxylic acid methyl-(2-pyrrolidin-1-yl-ethyl)-amide], 100 to 1000 nM.
The result for `CC(=O)N1CCN(CCN(C)C(=O)N2N=C3c4cc(F)ccc4OC[C@@H]3[C@@H]2c2ccccc2)CC1` (racemic) [Example 29, (3RS,3aRS)-8-Fluoro-3-phenyl-3a,4-dihydro-3H-chromeno[4,3-c]pyrazole-2-carboxylic acid [2-(4-acetyl-piperazin-1-yl)-ethyl]methyl-amide] reads 100 to 1000 nM.
`CN(CCCN1CCCC1)C(=O)N1N=C2c3cc(F)ccc3OC[C@H]2[C@H]1c1ccccc1` (racemic) [Example 34, (3SR,3aSR)-8-Fluoro-3-phenyl-3a,4-dihydro-3H-chromeno[4,3-c]pyrazole-2-carboxylic acid methyl-(3-pyrrolidin-1-yl-propyl)-amide]: the EC50 was not above 100 nM.
Next, `CC(=O)N1CCN(CCCN(C)C(=O)N2N=C3c4cc(F)ccc4OC[C@H]3[C@H]2c2ccccc2)CC1` (racemic) [Example 35, (3SR,3aSR)-8-Fluoro-3-phenyl-3a,4-dihydro-3H-chromeno[4,3-c]pyrazole-2-carboxylic acid [3-(4-acetyl-piperazin-1-yl)-propyl]-methyl-amide]: 100 to 1000 nM.
